Test: particle size (dv10) of darunavir after drying
Type: physicochemical
Conditions: 10% (volume %) of particles smaller than value
Experimental: The active ingredient darunavir ethanolate used in the marketed 300 mg tablet formulation has been manufactured by a process which includes a drying process in which the particulate darunavir is dried on trays, i.e. a static process. However, in order to provide a higher manufacturing throughput and improved safety for the operators, it is desirable to replace the static drying with a tumble drying operation involving drying in a revolving container. Such a change in the drying operation however has a significant effect on the physical characteristics of the particles of the darunavir. In this case the tumble drying of the particles results in a reduction in the dv10 value (dv10 means that 10% (volume %) of the particles has a diameter smaller than the specified value) from approximately 80 microns to approximately 35 microns. […] It will be appreciated that good blend flow and good tablet properties such as weight uniformity and appropriate visual appearance, without any defects, are essential in a large-scale industrial manufacturing process to maximise throughput and ensure consistent and efficient processing of the material.

CC(C)CN(C[C@@H](O)[C@H](Cc1ccccc1)NC(=O)O[C@H]1CO[C@H]2OCC[C@H]21)S(=O)(=O)c1ccc(N)cc1 [darunavir, [(1S,2R)-3-[[(4-aminophenyl)sulfonyl](2-methylpropyl)amino]-2-hydroxy-1-(phenylmethyl)propyl]-carbamic acid (3R,3aS,6aR)hexahydrofuro[2,3-b]furan-3-yl ester]
dv10 value (after tumble drying): approximately 35 microns
dv10 value (static drying on trays): approximately 80 microns

Reference: patent US20100189783A1, “RELATING TO ANTI-HIV TABLET FORMULATIONS” (priority 2007, published 2010)
